Data on eight molecules can be found in patent publication US9650339B2, “Inhibitors of histone demethylases” (Gilead Sciences, Inc., priority 2013, dated 2017).

The target in one experiment is T1, KDM2B (FBXL10) (Homo sapiens, UniProt Q8NHM5).
T1 sequence (Q8NHM5 1-650): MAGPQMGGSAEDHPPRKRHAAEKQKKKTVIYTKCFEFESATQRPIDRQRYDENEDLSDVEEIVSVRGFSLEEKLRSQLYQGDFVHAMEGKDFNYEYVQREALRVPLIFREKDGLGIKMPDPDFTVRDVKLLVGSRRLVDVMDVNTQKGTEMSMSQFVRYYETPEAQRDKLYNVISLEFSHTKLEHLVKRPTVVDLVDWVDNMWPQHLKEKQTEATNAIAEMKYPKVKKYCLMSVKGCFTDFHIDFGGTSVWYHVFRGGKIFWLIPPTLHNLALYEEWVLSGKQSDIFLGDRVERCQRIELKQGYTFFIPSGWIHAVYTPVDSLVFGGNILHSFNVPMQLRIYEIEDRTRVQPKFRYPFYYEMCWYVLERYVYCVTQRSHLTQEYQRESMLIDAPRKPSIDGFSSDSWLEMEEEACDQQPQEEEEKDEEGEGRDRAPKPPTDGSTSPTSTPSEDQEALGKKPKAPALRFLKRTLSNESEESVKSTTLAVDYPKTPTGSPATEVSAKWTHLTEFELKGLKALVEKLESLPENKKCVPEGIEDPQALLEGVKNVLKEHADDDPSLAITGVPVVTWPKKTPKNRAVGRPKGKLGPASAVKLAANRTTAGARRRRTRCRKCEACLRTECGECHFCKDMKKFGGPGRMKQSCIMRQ
Kind of experiment: Histone lysine demethylase AlphaLISA assay, KDM2B. The class given is biochemical. Conditions: read-out: KDM2B HDME Inhibition IC50. As for the experimental part: (§1) Assays are performed analogously to the protocol described by PerkinElmer (Roy et al. PerkinElmer Technical Note: AlphaLISA #12, April 2011)
(§2) Enzymes are dissolved in enzyme buffer and incubated for 10 min before being added to 3% DMSO solutions of compounds in enzyme buffer. Incubated for another 10 minutes, before substrate solution is added and the reaction mixture is incubated at room temperature. 10 μL acceptor beads, suspended in Epigenetic Buffer (Perkin Elmer AL008) from stock, are added and the suspension is incubated in the dark at room temperature, before a suspension of streptavidin donor beads (Perkin Elmer 6760002) in Epigenetic Buffer is added. After incubation at room temperature in the dark the plates are read. […]
BH3K36M2: RKAAPATGGVK(Me2)KPHRYRPGTVK-(BIOTIN)? (Anaspec)
(§3) Substrate Solution: Substrate, 25 μM L-Asc, and 10 μM α-KG in Buffer A.

For a further experiment, the target named is T2, KDM4C (JMJD2C) (Homo sapiens, UniProt Q9H3R0).
T2 sequence (Q9H3R0 1-349): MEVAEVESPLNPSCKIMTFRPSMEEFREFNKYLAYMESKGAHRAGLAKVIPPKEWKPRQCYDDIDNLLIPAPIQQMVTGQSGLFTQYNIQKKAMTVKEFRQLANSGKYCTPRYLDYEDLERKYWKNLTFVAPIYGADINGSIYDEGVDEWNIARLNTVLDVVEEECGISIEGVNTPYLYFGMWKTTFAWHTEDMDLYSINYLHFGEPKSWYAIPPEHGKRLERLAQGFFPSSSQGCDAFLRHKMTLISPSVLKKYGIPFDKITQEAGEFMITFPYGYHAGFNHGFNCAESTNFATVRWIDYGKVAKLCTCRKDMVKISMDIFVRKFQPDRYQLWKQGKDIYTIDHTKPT
Kind of experiment: Histone lysine demethylase AlphaLISA assay, KDM4C. The class given is biochemical. Conditions: read-out: KDM4C HDME Inhibition IC50. As for the experimental part:
as §1
Enzymes are dissolved in enzyme buffer and incubated for 10 min before being added to 3% DMSO solutions of compounds in enzyme buffer. Incubated for another 10 minutes, before substrate solution is added and the reaction mixture is incubated at room temperature. 10 μL acceptor beads, suspended in Epigenetic Buffer (Perkin Elmer AL008) from stock, are added and the suspension is incubated in the dark at room temperature, before a suspension of streptavidin donor beads (Perkin Elmer 6760002) in Epigenetic Buffer is added. After incubation at room temperature in the dark the plates are read.
BK9M3: Biotin-ARTKQTAR(KMe3)STGGKAPRKQ-NH2 (Caslo, Denmark) […]
as §3
A general note: Bead proximity is the source of the signal in Alpha formats.

For another experiment, the system named is MCF7 cells. As to the kind of experiment: Cell proliferation assay MCF7. Type of experiment: cell-based. Particulars: MCF7 human breast cancer cells; 120 hours; ATPlite 1 Step. As for the experimental part: MCF7 cells were seeded in multi well plates at a density optimized to give approximately 90% confluent cells at the time of harvest. Cells were incubated for 24 hours before addition of compound. Compounds were diluted in complete medium and added to the plates in duplicates. The final concentration of DMSO was maximum 0.5%. Complete medium used was DMEM with GlutaMAX containing 10% FBS and pen/strep.
120 hours after addition of compounds, the plates were harvested and analyzed by ATPlite 1 Step (Perkin Elmer, cat no 6016739) according to the manufactures recommendation.
(Cellular ATP, detected with luciferase, serves as a proxy for viable cell number.)

The target in the next experiment is T3, KDM5B (PLU-1) (Homo sapiens, UniProt Q9UGL1).
T3 sequence (Q9UGL1 1-809): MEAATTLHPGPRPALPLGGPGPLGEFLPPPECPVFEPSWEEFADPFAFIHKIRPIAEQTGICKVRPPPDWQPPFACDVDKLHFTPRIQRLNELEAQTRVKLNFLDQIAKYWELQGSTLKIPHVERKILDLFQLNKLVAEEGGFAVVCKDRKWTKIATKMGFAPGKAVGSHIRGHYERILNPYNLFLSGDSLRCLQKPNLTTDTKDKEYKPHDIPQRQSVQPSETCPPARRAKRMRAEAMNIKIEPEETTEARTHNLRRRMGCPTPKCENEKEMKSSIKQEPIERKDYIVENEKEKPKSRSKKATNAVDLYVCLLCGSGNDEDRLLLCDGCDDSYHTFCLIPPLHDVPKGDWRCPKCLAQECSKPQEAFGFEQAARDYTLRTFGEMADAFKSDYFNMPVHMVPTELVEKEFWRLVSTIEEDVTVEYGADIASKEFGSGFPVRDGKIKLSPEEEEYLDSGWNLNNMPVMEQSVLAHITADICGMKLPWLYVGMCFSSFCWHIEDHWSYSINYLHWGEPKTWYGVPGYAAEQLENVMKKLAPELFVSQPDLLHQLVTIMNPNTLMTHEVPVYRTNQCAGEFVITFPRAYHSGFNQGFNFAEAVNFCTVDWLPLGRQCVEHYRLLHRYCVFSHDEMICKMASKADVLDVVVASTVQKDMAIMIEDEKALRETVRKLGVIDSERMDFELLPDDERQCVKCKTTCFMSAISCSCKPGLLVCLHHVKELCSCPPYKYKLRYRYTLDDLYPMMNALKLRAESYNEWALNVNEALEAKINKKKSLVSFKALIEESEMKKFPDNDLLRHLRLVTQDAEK
Kind of experiment: Histone lysine demethylase AlphaLISA assay, KDM5B. Type of experiment: biochemical. Conditions: read-out: KDM5B HDME Inhibition IC50. As for the experimental part: as §1, §2
H3K4M3B: H-ART(Kme3)QTARKSTGGKAPRKQLA-NH-Biotin (Caslo, Denmark) […]
as §3

The next experiment addresses KDM6A (UTX) (Homo sapiens, UniProt O15550). As to the kind of experiment: Histone lysine demethylase AlphaLISA assay, KDM6A. Type of experiment: biochemical. Particulars: read-out: KDM6A HDME Inhibition IC50. The protocol:
as §1, §2
BK27M3: Biotin-ATKAAR(Kme3)SAPATGGVKKPHRY-NH2? (Caslo, Denmark) […]
as §3

A further experiment concerns H3K4me3 mark. Kind of experiment: Histone lysine demethylase immunofluorescence assay, non-transfected U2OS cells. Type of experiment: cell-based. Conditions: Homo sapiens, staining of the H3K4me3 mark, 20 hours incubation with compound. The protocol: U2OS cells were harvested and seeded into multi well plates into media containing compound. The media used was DMEM containing 5% FBS and pen/strep. 20 hours after incubation of cells with compounds, the cells were washed once in PBS, harvested by fixation with formaldehyde 4% aqueous solution, and washed in PBS. Subsequently, the cells were permeabilized in PBS with 0.2% Triton X-100. Blocking was performed in PBS with 0.2% Triton X-100 and 5% FBS. The cells were incubated with αH3K4me3 primary antibody (Cell Signaling, #9751S) in blocking solution over night at 4° C. After incubation with primary antibody, the cells were washed with PBS, incubated with secondary antibody (Alexa fluor 594 goat anti rabbit IgG, Invitrogen, A11012) and Hoechst, (Sigma, 33342) in blocking solution, and washed again with PBS. Finally, PBS was added and high throughput imaging and analysis were performed by an IN Cell Analyzer 1000 (GE Healthcare). The IC50 values were based on an average measure of the staining of the H3K4me3 mark in cells.

In another experiment the target is T4, KDM7 (PHF8) (Homo sapiens, UniProt Q9UPP1).
T4 construct: KDM7 (PHF8); BRIC; 1-1322; Bac
As to the kind of experiment: Histone lysine demethylase AlphaLISA assay, KDM7. The class given is biochemical. Conditions: read-out: PHF8 HDME Inhibition IC50. The protocol:
as §1, §2
BK9M2: Biotin-ARTKQTAR(KMe2)STGGKAPRKQ-NH2 (AnaSpec 64359)
BK9M1: Biotin-ARTKQTAR(KMe1)STGGKAPRKQ-NH2 (AnaSpec 64358) […]
as §3

Where only a bound is given, the exact number is not on record here.

Sequence of KDM6A (UTX) (O15550 919-1401): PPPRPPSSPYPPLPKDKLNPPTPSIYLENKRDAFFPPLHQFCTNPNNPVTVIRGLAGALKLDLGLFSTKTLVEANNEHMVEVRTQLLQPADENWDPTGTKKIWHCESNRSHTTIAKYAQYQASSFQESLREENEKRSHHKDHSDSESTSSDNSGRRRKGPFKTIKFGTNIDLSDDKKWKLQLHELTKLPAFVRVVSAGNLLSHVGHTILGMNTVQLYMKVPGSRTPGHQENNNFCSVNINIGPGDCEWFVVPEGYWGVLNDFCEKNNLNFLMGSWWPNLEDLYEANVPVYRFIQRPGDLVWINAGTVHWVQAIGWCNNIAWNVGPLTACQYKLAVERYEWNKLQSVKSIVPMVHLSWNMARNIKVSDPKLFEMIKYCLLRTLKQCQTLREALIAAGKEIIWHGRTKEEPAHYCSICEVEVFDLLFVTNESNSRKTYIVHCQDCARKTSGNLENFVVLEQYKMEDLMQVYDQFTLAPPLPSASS
T4 sequence (Q9UPP1 37-440 limits assumed): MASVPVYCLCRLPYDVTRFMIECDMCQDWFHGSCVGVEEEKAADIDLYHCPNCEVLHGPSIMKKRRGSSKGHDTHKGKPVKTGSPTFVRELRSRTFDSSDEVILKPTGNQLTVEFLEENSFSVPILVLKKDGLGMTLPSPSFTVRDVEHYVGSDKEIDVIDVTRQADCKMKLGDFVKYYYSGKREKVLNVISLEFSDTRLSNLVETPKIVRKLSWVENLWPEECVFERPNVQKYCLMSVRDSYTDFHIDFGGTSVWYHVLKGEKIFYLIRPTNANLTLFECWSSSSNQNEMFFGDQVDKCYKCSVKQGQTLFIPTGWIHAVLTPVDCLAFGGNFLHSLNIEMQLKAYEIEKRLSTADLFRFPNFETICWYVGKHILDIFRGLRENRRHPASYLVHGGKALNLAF

In general, IC50 refers to the concentration at which inhibition is half-maximal. The EC50 is the concentration needed to bring the measured effect to its halfway point. A low value points to an effect from little substance. In the case of `CCN(CCCN(C)C)C(=O)CNCc1cc(/C=N/CCO)ccn1` [Compound 82, N-[3-(dimethylamino)propyl]-N-ethyl-2-[({4-[[(2-hydroxyethyl)imino]-methyl]pyridin-2-yl}methyl)amino]-acetamide], the IC50 on KDM2B (FBXL10) is over 2500 nM; on KDM4C (JMJD2C), over 2500 nM; on KDM5B (PLU-1), over 2500 nM; on KDM6A (UTX), over 2500 nM; in the experiment on H3K4me3 mark, under 250 nM. Further, the EC50 in the experiment with MCF7 cells was under 250 nM.
In the case of `CCN(C[C@@H]1CCC[C@@H]1N(C)C)C(=O)CNCc1cc(/C=N/CCO)ccn1` [Compound 85, N-{[(1S,2S)-2-(dimethylamino)-cyclopentyl]methyl}-N-ethyl-2-[({4-[[(2-hydroxyethyl)imino]-methyl]pyridin-2-yl}methyl)amino] acetamide-], the IC50 was over 2500 nM at KDM2B (FBXL10); under 250 nM on KDM4C (JMJD2C); under 250 nM at KDM5B (PLU-1); over 2500 nM at KDM6A (UTX); under 250 nM with H3K4me3 mark. In addition, the EC50 in the experiment with MCF7 cells is 250 to 2500 nM.
As for `CCN(CC)CCCCNCc1cc(CNC(=O)C(=O)O)ccn1` [Compound 27, ({[2-({[4-(diethylamino)-butyl]amino}methyl)pyridin-4-yl]methyl}carbamoyl)-formic acid], the IC50 on KDM7 (PHF8) was over 2500 nM; at KDM2B (FBXL10), over 2500 nM; on KDM4C (JMJD2C), over 2500 nM; at KDM5B (PLU-1) it was under 250 nM; on KDM6A (UTX), over 2500 nM; in the experiment with H3K4me3 mark, under 250 nM. In the experiment on MCF7 cells, this molecule gave an EC50 of 250 to 2500 nM.
Take `CCN(CCN(C)C)C(=O)CNCc1cc(/C=N/CC2(CO)CC2)ccn1` [Compound 88, N-[2-(dimethylamino)-ethyl]-N-ethyl-2-[({4-[({[1-(hydroxymethyl)cyclopropyl]methyl}imino)methyl]pyridin-2-yl}methyl)amino] acetamide]: the IC50 at KDM7 (PHF8) was over 2500 nM; on KDM2B (FBXL10), over 2500 nM; at KDM4C (JMJD2C), 250 to 2500 nM; at KDM5B (PLU-1), under 250 nM; on KDM6A (UTX), over 2500 nM; in the experiment with H3K4me3 mark it was under 250 nM. The molecule also had an EC50 with MCF7 cells of under 250 nM.
For `CCN(CCN(C)C)C(=O)CNCc1cc(CNC(=O)C(F)(F)CC)ccn1` [Compound 32, N-[(2-{[({[2-(dimethylamino)-ethyl](ethyl)-carbamoyl}methyl)-amino]methyl}pyridin-4-yl)methyl]-2,2-difluorobutanamide], the IC50 is over 2500 nM at KDM2B (FBXL10); over 2500 nM on KDM4C (JMJD2C); under 250 nM at KDM5B (PLU-1); over 2500 nM at KDM6A (UTX); over 2500 nM in the experiment with H3K4me3 mark. The same molecule registered an EC50 in the experiment with MCF7 cells of over 2500 nM.
Regarding `CCN(CC1CCCN1C)C(=O)CNCc1cc(/C=N/CCO)ccn1` (stereo not drawn) [Compound 79, N-ethyl-2-[({4-[[(2-hydroxyethyl)imino]-methyl]pyridin-2-yl}methyl)amino]-N-[(1-methylpyrrolidin-2-yl)-methyl]acetamide], the IC50 was over 2500 nM on KDM2B (FBXL10), 250 to 2500 nM at KDM4C (JMJD2C), under 250 nM at KDM5B (PLU-1) and under 250 nM in the experiment with H3K4me3 mark. The same molecule gave an EC50 in the experiment with MCF7 cells of under 250 nM.
Consider `CCN(CCN1CCC1)C(=O)CNCc1cc(CNC(=O)C(F)(F)F)ccn1` [Compound 30, N-[(2-{[({[2-(azetidin-1-yl)ethyl](ethyl)-carbamoyl}-methyl)amino]methyl}-pyridin-4-yl)methyl]-2,2,2-trifluoroacetamide], for which the IC50 on KDM2B (FBXL10) was over 2500 nM; at KDM4C (JMJD2C) it was over 2500 nM; on KDM5B (PLU-1), 250 to 2500 nM; at KDM6A (UTX), over 2500 nM; in the experiment with H3K4me3 mark, under 250 nM. In the experiment on MCF7 cells, this molecule yielded an EC50 of under 250 nM.
`CCN(CC(C)N(C)C)C(=O)CNCc1cc(/C=N/CCO)ccn1` (stereo not drawn) [Compound 83, N-[2-(dimethylamino)-propyl]-N-ethyl-2-[({4-[[(2-hydroxyethyl)imino]-methyl]pyridin-2-yl}methyl)amino]-acetamide]: the half-inhibitory concentration (IC50) on KDM2B (FBXL10) is over 2500 nM; on KDM4C (JMJD2C) it was 250 to 2500 nM; on KDM5B (PLU-1) it was under 250 nM; in the experiment with H3K4me3 mark it was under 250 nM. In the experiment with MCF7 cells, this molecule showed an EC50 of under 250 nM.
